In patent publication US20260224714A1, “CYCLING LYSOSOMAL TARGETING ANTIBODY CONJUGATES” (Lycia Therapeutics, Inc., priority 2023, published 2026):

Legend:
Format in all cases: cell-based
[1] = tested on: HepG2 cells; assay: Externalization of conjugates from a cell following internalization (cycling), high-throughput format (Example 11); conditions: 50 nM conjugate 1 hour, stringent washes, Alexa Fluor 647-labelled a-human IgG 1 hour, FACS, normalized to unconjugated parent protein, average of two replicate wells
Experimental: (§1) The following experiments were performed with HepG2 hepatocellular carcinoma cells, grown in Eagle's Minimal Essential Media (EMEM) supplemented with 10% FBS and penicillin/streptomycin.
The method was also adapted to a high-throughput format. In this assay, 25,000 HepG2 cells were plated in 96-well plates 48 hours before performing the experiment. The day of the experiment, cells were incubated with conjugate at indicated concentrations for 1 hour. Cells were then placed on ice to prevent trafficking/recycling during wash steps, and washed once with DPBS, once with sodium acetate buffer (20 mM, 150 mM NaCl, pH 5.2), once with Earle's Balanced Salt Solution (EBSS) adjusted to pH 2.5, and once again with DPBS, to remove conjugate from media and cell surface. Afterwards, 100 ul of prewarmed (to 37° C.) EMEM with 1 μg/ml of human a-IgG antibody conjugated to Alexa Fluor647 fluorophores was added to cells for 1 hour before washing with DPBS and detaching with 0.25% Trypsin/EDTA. Cells were pelleted in 96-well conical bottom plates, washed once with FACS Buffer with BSA (Rockland Immunochemicals), resuspended FACS Buffer with BSA and median AF647 intensity was analyzed by flow cytometry. The amount of conjugate capable of cycling to the cell surface (being externalized from the cell) and binding to the Alexa Fluor647 labelled α-IgG was measured by analyzing median cellular 647 fluorescence intensity by flow cytometry. […]. Reported values are the average of the values of two replicate wells.

[2] = tested on: Alexa Fluor647 labelled human IgE; assay: Uptake assay: internalization of Alexa Fluor 647 labelled IgE in wild type HepG2 cells (Example 6); conditions: equimolar conjugate and AF647 IgE, 2 hours, median cellular AF647 intensity by flow cytometry, normalized to unconjugated parent protein
Experimental: as §1
(§2) HepG2 cells (25,000) were plated in 96-well plates 48 hours before the experiment was performed. On the day of the experiment, indicated the conjugate was mixed with an equimolar stock of Alexa Fluor647 labelled human IgE (Enzo Life Sciences, BPD-DIA-HE 1) in fresh EMEM as a 600 nM stock. The precomplexed conjugate:IgE mixture was incubated at room temperature for 30 minutes. During the precomplexing step, media from HepG2 was removed, and 40 ul of EMEM with 1/100 Fc Receptor Blocking Solution (Biolegend Human TruStain FcX, 422302) was added. Cells incubated in the receptor blocking solution for 10 minutes while making serial dilutions (1:3) of conjugate:IgE stock solution in EMEM. 40 ul of the conjugate:IgE mixture in EMEM was then added to cells (six dilutions, with final concentrations ranging from 300 nM to 1.23 nM) for 2 hours before washing with DPBS and detaching with 0.25% Trypsin/EDTA. Cells were pelleted in 96-well conical bottom plates, washed once with FACS Buffer with BSA (Rockland Immunochemicals), and resuspended in FACS Buffer with BSA. Uptake of fluorescently labelled IgE was measured by analyzing median cellular AF647 intensity by flow cytometry.
(§3) Cells were incubated with equimolar ratio of conjugate and AF647 IgE at indicated concentrations, with data normalized to unconjugated parent protein (Oma S35HWY57H-LC).

[3] = tested on: recombinant IgE; assay: Degradation of super-stoichiometric levels of target in HepG2 cells (Example 13, Table 31); conditions: 1 nM conjugate and 25 nM IgE for three days, (A-B)/C IgE depleted relative to conjugate, average of two replicate wells
Experimental: as §1
For evaluation of compounds in a high throughput format, 25,000 HepG2 cells were plated in a 96-well plate. The following day, 50 ul of 1 nM conjugate and 25 nM recombinant IgE in EMEM were added to the cells. 50 ul of the initial stock of conjugate:IgE was saved to quantify for an initial time point. Three days later, the media was collected from cells, and both initial and 72 hour time points were quantified for IgE concentration using the MSD assay.
HepG2 cells were incubated in media containing 1 nM conjugate and 25 nM IgE for three days. Concentrations of IgE at beginning and end of experiment were quantified by ELISA-based assay. Molar equivalents of IgE depleted relative to conjugate added are shown, calculated as (A-B)/C, where A is the initial concentration of IgE, B is the concentration of IgE at day three, and C is the concentration of conjugate. Reported values are the average of the values of two replicate wells.

[4] = tested on: human IgE; assay: Degradation of initial and subsequent dose of target in HepG2 cells (Example 12, Table 30); conditions: normalized to unconjugated; for Normalized Fluorescence Post Wash Median Green: after wash, probe-conjugated IgE added for 4 hours, subsequent dose of target; for Normalized Fluorescence Precomplex Median Deep Red: precomplexed equimolar conjugate:IgE (cathepsin-cleavable quenched fluorescent probe) added for 2 hours, initial dose of target
Experimental: as §1
HepG2 cells (25,000) were plated in 96-well plates 48 hours before performing the experiment. On the day of the experiment, indicated conjugate was diluted in fresh EMEM as a 2× stock, and mixed with an equimolar stock of human IgE (Enzo Life Sciences, BPD-DIA-HE 1) conjugated to a cathepsin-cleavable quenched fluorescent probe. The precomplexed conjugate:IgE mixture was incubated at 37 degrees Celsius for 30 minutes. Media from HepG2 was removed, and conjugate:IgE mixture in EMEM was added to cells for 2 hours. Cells were then placed on ice to prevent trafficking/recycling during wash steps, and washed once with DPBS, once with sodium acetate buffer (20 mM, 150 mM NaCl, pH 5.2), once with Earle's Balanced Salt Solution (EBSS) adjusted to pH 2.5, and once again with DPBS, to remove conjugate from media and cell surface. Afterwards, 100 ul of prewarmed (to 37 degrees Celsius) EMEM with cathepsin-cleavable quenched fluorescent probe-conjugated IgE was added to cells for 4 hours before washing with DPBS and detaching with 0.25% Trypsin/EDTA. Cells were pelleted in 96-well conical bottom plates, washed once with FACS Buffer with BSA (Rockland Immunochemicals), resuspended FACS Buffer with BSA and median 488 and 647 intensity was analyzed by flow cytometry. Delivery of labelled IgE to the lysosome and subsequent cleavage of initial precomplexed IgE was measured by analyzing median cellular 647 intensity, while cleavage of the post wash addition of IgE, which should only be degraded by recycling conjugates which released the first round of precomplexed IgE, was analyzed by median cellular 488 intensity. HepG2 cells were treated with human IgE (Enzo Life Sciences, BPD-DIA-HE1) conjugated to a cathepsin-cleavable quenched deep red (647) fluorescent probe precomplexed to conjugate fortwo hours, then washed, and fresh media with IgE conjugated to a green (488) cathepsin-cleavable fluorescent probe was then added without conjugate. […] Fluorescence values were measured by FACS and normalized to unconjugated parent protein. Reported values are the average of the values of two replicate wells.

[5] = tested on: Alexa Fluor647 labelled human IgE; assay: Uptake assay: internalization of Alexa Fluor 647 labelled IgE in ASGPR1/2 KO HepG2 cells (Example 6); conditions: equimolar conjugate and AF647 IgE, normalized to unconjugated parent protein
Experimental: as §1, §2, §3

[6] = tested on: LysoLight-labelled human IgE; assay: Lysosomal degradation of LysoLight-labelled IgE in HepG2 cells, live cell imaging (Example 7); conditions: equimolar conjugate:LysoLight IgE, area under the curve of deep red fluorescence over three days, normalized to unconjugated parent protein
Experimental: as §1
HepG2 cells (15,000) were plated in 96-well plates 72 hours before performing the experiment. On the day of the experiment, indicated the conjugate was diluted in fresh EMEM and mixed with an equimolar stock of LysoLight-labelled human IgE (Enzo Life Sciences, BPD-DIA-HE1), at 200 nM of each compound. The precomplexed conjugate:IgE mixture was incubated at room temperature for 30 minutes. During the precomplexing step, media from HepG2 was removed, and 40 ul of EMEM with 1/100 Fc Receptor Blocking Solution (Biolegend Human TruStain FcX, 422302) was added. Cells incubated in the receptor blocking solution for 10 minutes while making serial dilutions (1:3) of conjugate:IgE stock solution in EMEM. 40 ul of the conjugate:IgE mixture in EMEM was then added to cells (five dilutions, with final concentrations ranging from 100 nM to 1.23 nM). Cells were placed in an IncuCyte Live-Cell Analysis System (Sartorius) for long term live cell imaging analysis (10× magnification, 3 images per well). One hour after addition of compound, image acquisition to measure red fluorescence from the LysoLight probe was started, with further Images collected every hour for 72 hours. Fluorescence of the LysoLight probe only occurs when cleaved by lysosomal cathepsin proteases, confirming lysosomal delivery and degradation of target. After 72 hours, mean red fluorescence was measured for each time point, and the area under the curve of fluorescence overtime was used to measure total degradation over the 3-day time period.

Structure (SMILES)	Normalized Fluorescence [1]	Normalized Fluorescence 3.7 nM WT [2]	Normalized Fluorescence 100 nM WT [2]	Average Degradation (Molar equivalents) [3] [Molar equivalents]	Normalized Fluorescence Post Wash Median Green [4]	Normalized Fluorescence Precomplex Median Deep Red [4]	Normalized Fluorescence 100 nM ASGPR KO [5]	Normalized Fluorescence 3.7 nM [6]	Normalized Fluorescence 100 nM [6]
CC(=O)N[C@@H]1[C@@H](O)[C@@H](O)[C@@H](CO)O[C@@H]1CCCOCCOCCNC(=O)NCCCC(CCCNC(=O)NCCOCCOCCC[C@H]1O[C@H](CO)[C@H](O)[C@H](O)[C@H]1NC(C)=O)(CCCNC(=O)NCCOCCOCCC[C@H]1O[C@H](CO)[C@H](O)[C@H](O)[C@H]1NC(C)=O)NC(=O)COCCOCCOCCOCCN(C(=O)CBr)C1CCOCC1 [Compound 2307, N-[4-[2-[2-[3-[(2R,3R,4R,5R,6R)-3-acetamido-4,5-dihydroxy-6-(hydroxymethyl)tetrahydropyran-2-yl]propoxy]ethoxy]ethylcarbamoylamino]-1,1-bis[3-[2-[2-[3-[(2R,3R,4R,5R,6R)-3-acetamido-4,5-dihydroxy-6-(hydroxymethyl)tetrahydropyran-2-yl]propoxy]ethoxy]ethylcarbamoylamino]propyl]butyl]-2-[2-[2-[2-[2-[(2-bromoacetyl)-tetrahydropyran-4-yl-amino]ethoxy]ethoxy]ethoxy]ethoxy]acetamide]	42.9	81.6	253.2	5.6	3.5	3.7	1.2	7.9	4.1
CC(=O)N[C@H]1[C@H](OCCCCC(=O)NCCCNC(=O)CCOCC(COCCC(=O)NCCCNC(=O)CCCCO[C@@H]2O[C@H](CO)[C@H](O)[C@H](O)[C@H]2NC(C)=O)(COCCC(=O)NCCCNC(=O)CCCCO[C@@H]2O[C@H](CO)[C@H](O)[C@H](O)[C@H]2NC(C)=O)NC(=O)CCCCCCCCCCC(=O)NCCN2C(=O)C=CC2=O)O[C@H](CO)[C@H](O)[C@@H]1O [Compound 2401-C]	3.2	10.3	44.7	−1.0	1.2	1.7	1.2	1.1	1.8
CC(=O)N[C@@H]1[C@@H](O)[C@@H](O)[C@@H](CO)O[C@@H]1CCCOCCOCCNC(=O)NCCCC(C)(CCCNC(=O)NCCOCCOCCC[C@H]1O[C@H](CO)[C@H](O)[C@H](O)[C@H]1NC(C)=O)NC(=O)NCCOCCOCCOCCNC(=O)c1ccc(N2C(=O)C=CC2=O)cc1 (stereo partly drawn) [Compound 2318, N,N′-((2R,2′R,3R,3′R,4R,4′R,5R,5′R,6R,6′R)-(16-(3-(1-(4-(2,5-dioxo-2,5-dihydro-1H-pyrrol-1-yl)phenyl)-1-oxo-5,8,11-trioxa-2-azatridecan-13-yl)ureido)-16-methyl-11,21-dioxo-4,7,25,28-tetraoxa-10,12,20,22-tetraazahentriacontane-1,31-diyl)bis(4,5-dihydroxy-6-(hydroxymethyl)tetrahydro-2H-pyran-2,3-diyl))diacetamide]	27.4	44.1	159.1	4.2	2.0	2.4	1.0	4.1	2.1
CC(=O)N[C@@H]1[C@@H](O)[C@@H](O)[C@@H](CO)O[C@@H]1CCCOCCOCCNC(=O)NCCCC(C)(CCCNC(=O)NCCOCCOCCC[C@H]1O[C@H](CO)[C@H](O)[C@H](O)[C@H]1NC(C)=O)NC(=O)NCCOCCOCCOCCNC(=O)CBr (stereo partly drawn) [Compound 2320]	24.1	37.7	224.4	0.5	2.7	3.2	1.1	6.4	2.7
